The source of these data is patent US7566712B2, “Biaryl piperazinyl-pyridine analogues” (Neurogen Corporation, priority 2003, dated 2009).

By IC50 is commonly meant the concentration at which inhibition is half-maximal.

The target in the first experiment is T1, human capsaicin receptor (Homo sapiens, UniProt Q8NER1).
T1 construct: pBK-CMV expression construct encoding the full length human capsaicin receptor; expressed in transfected cells
T1 sequence (Q8NER1 whole entry): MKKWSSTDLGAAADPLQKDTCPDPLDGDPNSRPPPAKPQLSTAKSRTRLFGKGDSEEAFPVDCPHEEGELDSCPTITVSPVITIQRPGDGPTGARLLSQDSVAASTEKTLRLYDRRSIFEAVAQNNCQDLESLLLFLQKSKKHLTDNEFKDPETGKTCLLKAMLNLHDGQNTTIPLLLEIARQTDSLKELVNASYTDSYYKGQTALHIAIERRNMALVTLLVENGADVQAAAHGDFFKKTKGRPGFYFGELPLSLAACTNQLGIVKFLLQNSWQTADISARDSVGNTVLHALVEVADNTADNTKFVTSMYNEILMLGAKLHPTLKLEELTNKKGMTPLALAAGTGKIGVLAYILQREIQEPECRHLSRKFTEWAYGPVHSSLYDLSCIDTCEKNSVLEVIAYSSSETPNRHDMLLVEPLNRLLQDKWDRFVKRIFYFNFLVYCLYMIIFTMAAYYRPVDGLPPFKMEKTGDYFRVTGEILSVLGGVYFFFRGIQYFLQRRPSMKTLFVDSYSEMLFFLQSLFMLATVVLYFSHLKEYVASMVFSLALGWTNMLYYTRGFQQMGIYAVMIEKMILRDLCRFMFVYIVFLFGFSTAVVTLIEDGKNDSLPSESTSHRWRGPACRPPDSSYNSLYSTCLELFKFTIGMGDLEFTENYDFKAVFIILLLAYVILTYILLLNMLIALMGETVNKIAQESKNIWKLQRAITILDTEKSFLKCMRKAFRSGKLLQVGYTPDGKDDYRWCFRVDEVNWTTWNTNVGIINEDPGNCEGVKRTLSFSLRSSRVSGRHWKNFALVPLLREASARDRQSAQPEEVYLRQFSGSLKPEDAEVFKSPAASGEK
In words: Calcium mobilization assay, determination of antagonist activity (Example 6). It is filed as cell-based. The conditions noted are these: Table II; IC50 determined as described in Example 6. In short, it runs like this: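 Antagonism measured as inhibition of capsaicin-evoked (final concentration = EC50, from an 8-point 1 nM–3 μM curve) Fluo-3 calcium signal in stable hVR1-HEK293 cells. Test compounds at 1–5 μM final, 0.5–6 h dark preincubation at room temperature. IC50 = concentration giving 50% reduction versus agonist-only response.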
On the technique in general: Calcium assays in cells follow changes in intracellular calcium, usually with a dye or a luminescent sensor.
For the molecule `Cc1cc(-c2cc(N3CCN(c4ncccc4C(F)(F)F)C[C@H]3C)nc(N3CCOCC3)n2)ccc1F` [Example 497, 4-(4-(4-fluoro-3-methylphenyl)-6-{(2R)-2-methyl-4-[3-(trifluoromethyl)pyridin-2-yl]piperazin-1-yl}pyrimidin-2-yl)morpholine], the IC50 is at most 1000 nM.
The same measure, in the same setting: for `CN1CCC(N(C)c2nc(-c3ccc(F)c(Cl)c3)cc(N3CCN(c4ncccc4C(F)(F)F)CC3)n2)C1` (centres unmarked) [Example 564, 4-(3-chloro-4-fluorophenyl)-N-methyl-N-(1-methylpyrrolidin-3-yl)-6-{4-[3-(trifluoromethyl)pyridin-2-yl]piperazin-1-yl}pyrimidin-2-amine] the value was at most 1000 nM; for `Cc1cccnc1N1CCN(c2cc(-c3cccc(OC(F)(F)F)c3)nc(N3CCOCC3)n2)[C@H](C)C1` [Example 533, 4-{4-[(2R)-2-methyl-4-(3-methylpyridin-2-yl)piperazin-1-yl]-6-[3-(trifluoromethoxy)phenyl]pyrimidin-2-yl}morpholine], at most 1000 nM.
Same read-out and setting: for `C[C@@H]1CN(c2ncccc2C(F)(F)F)CCN1c1cc(-c2ccc(C(C)(C)C)cc2)nc(N2CCOCC2)n1` [Example 519, 4-(4-(4-tert-butylphenyl)-6-{(2R)-2-methyl-4-[3-(trifluoromethyl)pyridin-2-yl]piperazin-1-yl}pyrimidin-2-yl)morpholine] the value was at most 1000 nM; for `CN(C)C1CCN(c2nc(-c3ccc(F)c(Cl)c3)cc(N3CCN(c4ncccc4C(F)(F)F)CC3)n2)C1` (centres unmarked) [Example 562, 1-(4-(3-chloro-4-fluorophenyl)-6-{4-[3-(trifluoromethyl)pyridin-2-yl]piperazin-1-yl}pyrimidin-2-yl)-N,N-dimethylpyrrolidin-3-amine], at most 1000 nM; for `Cc1ccc(-c2cc(N3CCN(c4ncccc4C)C[C@H]3C)nc(N3CCOCC3)n2)cc1F` [Example 494, 4-{4-(3-fluoro-4-methylphenyl)-6-[(2R)-2-methyl-4-(3-methylpyridin-2-yl)piperazin-1-yl]pyrimidin-2-yl}morpholine], at most 1000 nM.

The experiment is the same for the next values; noted with them: Table II; IC50 determined as described in Example 6 (antagonist activity, calcium mobilization).
Consider `Cc1cccnc1N1CCN(c2cc(-c3ccc(F)c(Cl)c3)nc(N(C)[C@@H](C)CO)n2)CC1` [Example 1016, (2S)-2-[{4-(3-chloro-4-fluorophenyl)-6-[4-(3-methylpyridin-2-yl)piperazin-1-yl]pyrimidin-2-yl}(methyl)amino]propan-1-ol], for which the IC50 is at most 1000 nM.

Still in this experiment, the particulars now being: Table II; determined as described in Example 6 (antagonist activity); "*" = 1 micromolar or less.
For `Cc1cc(C#N)cnc1N1CCN(c2cc(-c3ccc(F)cc3)nc(N3CCCC3C)n2)[C@H](C)C1` (some centres unmarked) [Example 932, 6-{4-[6-(4-fluorophenyl)-2-(2-methylpyrrolidin-1-yl)pyrimidin-4-yl]-3-methylpiperazin-1-yl}-5-methylnicotinonitrile], the IC50 is at most 1000 nM.
For `C[C@@H]1CN(c2nccnc2Cl)CCN1c1cc(-c2ccc(F)c(Cl)c2)nc(Cl)n1` (stereo in doubt) [Example 907, 2-chloro-4-(3-chloro-4-fluorophenyl)-6-[4-(3-chloropyrazin-2-yl)-2-methylpiperazin-1-yl]pyrimidine], the IC50 is at most 1000 nM.
Same read-out and setting: for `C[C@@H]1CN(c2ncccc2Cl)CCN1c1cc(-c2cncc(C#N)c2)nc(N2CCCC2)n1` [Example 879, 5-{6-[(2R)-4-(3-chloropyridin-2-yl)-2-methylpiperazin-1-yl]-2-pyrrolidin-1-ylpyrimidin-4-yl}nicotinonitrile] the value was at most 1000 nM.
Same read-out and setting: for `C[C@@H]1CN(c2ncccc2Cl)CCN1c1cc(-c2ccc(F)cc2)nc(N2CCCC2)n1` (stereo in doubt) [Example 841, 4-[4-(3-chloropyridin-2-yl)-2-methylpiperazin-1-yl]-6-(4-fluorophenyl)-2-pyrrolidin-1-ylpyrimidine] the value was at most 1000 nM.
Same read-out and setting: for `Cc1cc(-c2cc(N3CCN(c4ncccc4Cl)C[C@H]3C)nc(N(C)C(C)CO)n2)ccc1F` (some centres unmarked) [Example 905, 2-[[4-[4-(3-chloropyridin-2-yl)-2-methylpiperazin-1-yl]-6-(4-fluoro-3-methylphenyl)pyrimidin-2-yl](methyl)amino]propan-1-ol] the value was at most 1000 nM.
Consider `CN(C)CCCc1cccc(-c2cc(N3CCN(c4ncccc4C(F)(F)F)CC3)nc(N3CCOCC3)n2)c1` [Example 851, N,N-dimethyl-3-[3-(2-morpholin-4-yl-6-{4-[3-(trifluoromethyl)pyridin-2-yl]piperazin-1-yl}pyrimidin-4-yl)phenyl]propan-1-amine], for which the IC50 is at most 1000 nM.
`CC1CCCN1c1nc(-c2cncc(Cl)c2)cc(N2CCN(c3ncccc3Cl)C[C@H]2C)n1` (some centres unmarked) [Example 807]: the IC50 is at most 1000 nM.
On the same count and under the same terms, for `CCCN1CCN(c2nc(-c3ccc(F)c(Cl)c3)cc(N3CCN(c4ncccc4C)CC3)n2)CC1` [Example 889, 4-(3-chloro-4-fluorophenyl)-6-[4-(3-methylpyridin-2-yl)piperazin-1-yl]-2-(4-propylpiperazin-1-yl)pyrimidine] the value was at most 1000 nM.
The same measure, in the same setting: for `C[C@@H]1CN(c2nccnc2Cl)CCN1c1cc(-c2ccc(F)cc2)nc(N2CCOCC2)n1` [Example 929, 4-[4-[(2R)-4-(3-chloropyrazin-2-yl)-2-methylpiperazin-1-yl]-6-(4-fluorophenyl)pyrimidin-2-yl]morpholine] the value was at most 1000 nM; for `C[C@@H]1CN(c2nccnc2Cl)CCN1c1nc(Cl)cc(-c2ccc(F)c(Cl)c2)n1` [Example 906, 4-chloro-6-(3-ohloro-4-fluorophenyl)-2-[4-(3-chloropyrazin-2-yl)-2-methylpiperazin-1-yl]pyrimidine], at most 1000 nM.

The same experiment, now with this note: determined as described in Example 6 (calcium mobilization, antagonist activity); Table II.
On to `Cc1cc(-c2cc(N3CCN(c4ncccc4C(F)(F)F)CC3)nc(N3CCC3C)n2)ccc1F` (centres unmarked) [Example 756, 4-(4-fluoro-3-methylphenyl)-2-(2-methylazetidin-1-yl)-6-{4-[3-(trifluoromethyl)pyridin-2-yl]piperazin-1-yl}pyrimidine], for which the half-inhibitory concentration (IC50) was at most 1000 nM.
Same read-out and setting: for `CN(CC(=O)O)c1nc(-c2ccc(F)c(Cl)c2)cc(N2CCN(c3ncccc3C(F)(F)F)CC2)n1` [Example 619, N-(4-(3-chloro-4-fluorophenyl)-6-{4-[3-(trifluoromethyl)pyridin-2-yl]piperazin-1-yl}pyrimidin-2-yl)-N-methylglycine] the value was at most 1000 nM; for `CC1CCCN1c1nc(-c2ccc(F)c(F)c2)cc(N2CCN(c3ncccc3Cl)C[C@H]2C)n1` (stereo partly drawn) [Example 768, 4-[(2R)-4-(3-chloropyridin-2-yl)-2-methylpiperazin-1-yl]-6-(3,4-difluorophenyl)-2-(2-methylpyrrolidin-1-yl)pyrimidine], at most 1000 nM; for `CN(C)C[C@@H]1CCCN1c1nc(-c2ccc(F)c(Cl)c2)cc(N2CCN(c3ncccc3C(F)(F)F)CC2)n1` [Example 712, 1-[(2S)-1-(4-(3-chloro-4-fluorophenyl)-6-{4-[3-(trifluoromethyl)pyridin-2-yl]piperazin-1-yl}pyrimidin-2-yl)pyrrolidin-2-yl]-N,N-dimethylmethanamine], at most 1000 nM.
Consider `Cc1cccnc1N1CCN(c2cc(-c3ccc(F)c(Cl)c3)nc(N3CCOCC3)n2)CC1` [Example 585, 4-{4-(3-chloro-4-fluorophenyl)-6-[4-(3-methylpyridin-2-yl)piperazin-1-yl]pyrimidin-2-yl}morpholine], for which the IC50 is at most 1000 nM.
Consider `Nc1cccnc1N1CCN(c2cc(-c3ccc(F)c(Cl)c3)nc(N3CCOCC3)n2)CC1` [Example 587, 2-{4-[6-(3-chloro-4-fluorophenyl)-2-morpholin-4-ylpyrimidin-4-yl]piperazin-1-yl}pyridin-3-amine], for which the IC50 is at most 1000 nM.
